Reference: US5089623A, “Certain imidate insecticides” (Imperial Chemical Industries Plc, priority 1990, dated 1992)

Experiments:
Format in all cases: in vivo
[1] = system: Housefly [Musca domestica]; experiment: Housefly insecticidal test (HF); conditions: per 25 female houseflies, 48 hours
[2] = system: Tobacco Budworm [Heliothis virescens (Fabricius)] eggs; experiment: Tobacco budworm egg test (TBW-E); conditions: percent in solution
[3] = system: Beet Armyworm (Spodoptera exigua); experiment: Beet armyworm test (BAW); conditions: second-instar larvae, five days, percent in solution
How it was run: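 Sugar beet leaves were dipped 2-3 s in compound diluted in 50-50 acetone-water, dried, then infested with five second-instar larvae in humid dishes. Mortality was scored after five days at concentrations from 0.1% downward. LC50 was taken from dosage-mortality curves as percent compound in solution.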

[4] = system: Cabbage Looper [Trichoplusia ni (Hubner)]; experiment: Cabbage looper test (CL); conditions: second-instar larvae, 3-5 days, percent in solution
[5] = system: Aster Leafhopper [Macrosteles fascifrens (Stal)]; experiment: Aster leafhopper test (LH); conditions: adults/nymphs, 48 hours, percent in solution
[6] = system: Rice water weevil [Lissorhoptrus oryzophilus (Kuschel)]; experiment: Rice water weevil test (RWW); conditions: per weevil, topical, female adults, 48 hours
Experimental: The compounds in Tables 1 and 2 above were tested for insecticidal activity using the following testing procedures. LC50 values, based on the results of these tests and calculated according to dosage-mortality curves, are expressed in Table 3.
Rice water weevil [Lissorhoptrus oryzophilus (Kuschel)]
Test compounds were diluted in acetone. Droplets (1 ul) of test solutions were applied to the ventral abdomens of ten female adult weevils. The treated weevils were placed in containers with wet cotton balls and rice foliage. The containers were covered and kept at a temperature of about 25° C. Mortality was recorded after 48 hours. […] The LC50 values are expressed below in Table 3 under the heading "RWW" in terms of μg of test compound per weevil.

[7] = system: Tobacco Budworm [Heliothis virescens (Fabricius)]; experiment: Tobacco budworm contact test (TBW-C); conditions: second-instar larvae, 5 days, percent in solution
How it was run: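 Cotton cotyledons dipped 2–3 s in compound in 50:50 acetone–water, dried, then infested with 5 second-instar larvae and held 5 days at high humidity before scoring mortality.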

[8] = system: Maize weevil [Sitophilus Zeamais (Motschulsky)]; experiment: Maize weevil test (MW); conditions: adult weevils, treated corn seeds, 48 hours, percent in solution
How it was run: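 Adult weevils (10) were placed with four corn seeds that had been dipped 2-3 s in compound dissolved in 50:50 acetone:water, then dried, and held at about 25° C. Mortality was scored at 48 h. LC50 was taken from dosage-mortality curves and expressed as percent compound in solution, from a 0.01% top concentration.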

SMILES	LC50 HF [1]	LC50 TBW E [2]	LC50 BAW [3]	LC50 CL [4]	LC50 LH [5]	LC50 RWW [6]	LC50 TBW C [7]	LC50 MW [8]
FC(F)(F)c1cccc(N=C(OCc2cccc(Oc3ccccc3)c2)C(Cl)Cl)c1 [Compound 66]	9.7 µg	0.06%	0.0065%	< 0.0025%	0.001%	> 2.5 µg	–	–
CC(C)C(=Nc1ccc2c(c1)OCO2)OCc1ccc(F)c(Oc2ccccc2)c1 [Compound 181]	25 µg	0.01%	0.001%	0.0005%	–	> 2.5 µg	0.001%	0.005%
CC(C)C(=Nc1ccc(F)c(Cl)c1)OCc1cccc(Oc2ccc(F)cc2F)c1 [Compound 191]	29 µg	0.04%	–	0.00023%	> 0.05%	> 2.5 µg	–	0.004%
CC(C)C(=Nc1c(F)c(F)c(F)c(F)c1F)OCc1cccc(Oc2ccc(F)cc2)c1 [Compound 198]	52 µg	> 0.1%	–	0.0005%	0.05%	> 2.5 µg	–	0.003%
CC(C)C(=Nc1ccc2c(c1)OC(F)(F)O2)OCc1cccc(Oc2ccc(F)cc2)c1 [Compound 244]	14 µg	> 0.1%	0.002%	0.00004%	–	0.09 µg	0.00025%	0.0025%
CC(C)C(=Nc1ccc2c(c1)OC(F)(F)O2)OCc1cccc(Oc2ccccc2)c1 [Compound 245]	20 µg	0.016%	0.001%	0.0035%	–	> 2.5 µg	0.0015%	0.006%
CC(C)C(=Nc1ccc(F)c(I)c1)OCc1ccc(F)c(Oc2ccc(F)cc2)c1 [Compound 281]	5 µg	0.006%	0.0027%	0.00002%	–	> 2.5 µg	0.00025%	0.005%
CC(C)C(=Nc1ccc2c(c1)OC(F)(F)O2)OCc1ccc(F)c(Oc2ccccc2)c1 [Compound 285]	36 µg	0.005%	0.0006%	0.000075%	–	0.13 µg	0.00017%	0.005%
CC(C)C(=Nc1ccc(Cl)c(Cl)c1)OCc1ccc(F)c(Oc2ccc(F)cc2)c1 [Compound 289]	10 µg	0.006%	–	0.00007%	0.0003%	0.082 µg	–	> 0.01%
CC(C)C(=Nc1ccc(F)c(F)c1)OCc1ccc(F)c(Oc2ccc(Cl)cc2)c1 [Compound 295]	7.8 µg	0.01%	–	0.00004%	0.0001%	> 2.5 µg	0.0005%	0.0053%
CC(C)C(=Nc1ccc(Cl)c(Cl)c1)OCc1ccc(F)c(Oc2ccc(Cl)cc2)c1 [Compound 296]	38 µg	0.025%	–	0.00025%	0.0003%	0.14 µg	0.00045%	–
CC(C)C(=Nc1ccc(F)c(Br)c1)OCc1ccc(F)c(Oc2ccc(Cl)cc2)c1 [Compound 298]	13 µg	0.015%	–	0.0001%	0.0001%	> 2.5 µg	0.0008%	0.008%
CC(C)C(=Nc1ccc(F)c(C(F)(F)F)c1)OCc1ccc(F)c(Oc2ccccc2)c1 [Compound 300]	14 µg	0.024%	–	0.0003%	0.00002%	0.075 µg	0.001%	0.01%
CC(C)C(=Nc1ccc(C(F)(F)F)cc1)OCc1ccc(F)c(Oc2ccc(Cl)cc2)c1 [Compound 324]	> 100 µg	0.025%	0.0024%	0.00014%	–	0.06 µg	0.0004%	–
CC(C)C(=Nc1ccc(F)cc1)OCc1ccc(F)c(Oc2ccc(Cl)cc2)c1 [Compound 325]	5 µg	0.037%	0.0025%	0.00012%	–	> 2.5 µg	0.0006%	–
CC(C)C(=Nc1ccc(F)c(Cl)c1F)OCc1ccc(F)c(Oc2ccc(F)cc2)c1 [Compound 330]	5 µg	0.037%	–	0.00012%	< 0.05%	0.06 µg	0.00035%	0.001%
CC(C)C(=Nc1ccc(F)c(Cl)c1F)OCc1cccc(Oc2ccc(Cl)cc2)c1 [Compound 331]	20 µg	0.04%	0.002%	0.0002%	–	> 2.5 µg	0.0004%	–
CC(C)C(=Nc1ccc(F)c(F)c1)OCc1ccc(F)c(Oc2ccccc2)c1 [Compound 336]	3.6 µg	0.02%	0.001%	0.00017%	–	> 2.5 µg	0.0005%	0.0091%
CC(C)C(=Nc1ccc(OC(F)(F)F)cc1)OCc1ccc(F)c(Oc2ccccc2)c1 [Compound 338]	26 µg	0.01%	–	0.000065%	–	0.044 µg	0.00037%	0.0053%
CC(C)C(=Nc1ccc(F)c(Cl)c1F)OCc1ccc(F)c(Oc2ccccc2)c1 [Compound 451]	3.6 µg	> 0.1%	–	0.0001%	0.0002%	0.065 µg	0.00025%	0.0051%
CC(C)C(=Nc1ccc(F)c(Cl)c1)OCc1cccc(Oc2ccc(F)cc2)n1 [Compound 461]	6 µg	0.01%	0.0035%	0.00008%	–	> 2.5 µg	–	0.0075%
